The text below walks through data of patent publication US7566718B2, “Amine-linked pyridyl and phenyl substituted piperazine-piperidines with CXCR3 antagonist activity” (Schering Corporation, priority 2005, dated 2009).

Molecules are shown by their SMILES.

This experiment deals with T1, human CXCR3 (N-delta 4) (Homo sapiens, UniProt P49682).
T1 construct: CD8 leader (N); Flag tag; expressed in transfected cells; membrane preparation
T1 sequence (P49682 5-368 limits assumed): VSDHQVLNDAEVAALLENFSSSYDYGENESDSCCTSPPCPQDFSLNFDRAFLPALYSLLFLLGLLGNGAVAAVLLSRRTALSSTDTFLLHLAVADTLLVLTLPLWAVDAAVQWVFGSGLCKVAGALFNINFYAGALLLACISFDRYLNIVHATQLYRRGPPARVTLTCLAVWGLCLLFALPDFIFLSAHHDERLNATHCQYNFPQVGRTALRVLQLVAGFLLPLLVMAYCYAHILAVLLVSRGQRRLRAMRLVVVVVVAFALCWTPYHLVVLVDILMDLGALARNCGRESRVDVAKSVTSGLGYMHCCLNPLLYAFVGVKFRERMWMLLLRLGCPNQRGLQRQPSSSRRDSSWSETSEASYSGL
Put plainly: Human CXCR3 (N-delta 4) scintillation proximity assay (SPA), [125I] IP-10 binding to Ba/F3-hCXCR3 membranes. The note with it: IC50 rating; [125I] IP-10 displacement, human CXCR3; read-out: IC50. The essentials: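 Membranes from Ba/F3 cells expressing Flag-tagged hCXCR3 (N-delta 4), 2 μg/point, precoupled to WGA SPA beads. Binding of 25 pM [125I] IP-10 measured with titrated compounds, 3 hr at room temperature, in HEPES buffer with CaCl2, MgCl2, NaCl and 1.0% BSA; bound tracer read by scintillation counting.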
In general terms: In a scintillation proximity assay essentially only radioactivity close to the scintillant gives light.
Regarding `CCNC(=O)Nc1cnc(N2CCN(C3CCN(Cc4ccc(Cl)cc4)CC3)[C@@H](C)C2)c(Cl)c1` [Compound 190], the IC50 (in general, the midpoint of a concentration-inhibition curve) lay in the range of 25 to 100 nM.
Regarding `CCNC(=O)Nc1cnc(N2C[C@H](C)N(C3CCN(Cc4ccc(Cl)cc4F)CC3)C[C@H]2C)c(Cl)c1` [Compound 191], the IC50 is > 100 nM.
On to `CCNC(=O)Nc1ccc(N2CCN(C3CCN(Cc4ccc(Cl)cc4)CC3)[C@@H](CC)C2)c(Cl)c1` [Compound 192], for which the half-inhibitory concentration (IC50) is > 100 nM.
In the case of `CCNC(=O)Nc1cc(Cl)c(N2CCN(C3CCN(Cc4ccc(Cl)cc4)CC3)[C@@H](CC)C2)c(Cl)c1` [Compound 193], the IC50 is > 100 nM.
Turning to `C[C@H]1CN(c2ncc(NC(=O)C3CCCCC3)cc2Cl)CCN1C1CCN(Cc2ccc(Cl)cc2)CC1` [Compound 194], the concentration for half-maximal inhibition (IC50) is > 100 nM.
As for `CC[C@H]1CN(c2ncc(NC(=O)C3CCCCC3)cc2Cl)CCN1C1CCN(Cc2ccc(Cl)cc2F)CC1` [Compound 195], the IC50 is > 100 nM.
In the case of `C[C@H]1CN(c2ncc(NC(=O)c3cccnc3)cc2Cl)CCN1C1CCN(Cc2ccc(Cl)cc2)CC1` [Compound 196], the IC50 is > 100 nM.
For `C[C@@H]1CN(C2CCN(Cc3ccc(Cl)cc3)CC2)[C@@H](C)CN1c1ncc(NC(=O)NCC(F)(F)F)cc1Cl` [Compound 197] the value was > 100 nM; for `C[C@H]1CN(c2ncc(NC(=O)NCc3ccccc3)cc2Cl)CCN1C1CCN(Cc2ccc(Cl)cc2)CC1` [Compound 198], > 100 nM; for `C[C@H]1CN(c2ncc(NC(=O)Nc3ccc(F)cc3)cc2Cl)CCN1C1CCN(Cc2ccc(Cl)cc2)CC1` [Compound 199], > 100 nM.
As to `C[C@H]1CN(c2ncc(NC(=O)c3ccc(Cl)cc3)cc2Cl)CCN1C1CCN(Cc2ccc(Cl)cc2)CC1` [Compound 200], the IC50 was > 100 nM.
As to `CC[C@H]1CN(c2ncc([N+](=O)[O-])cc2Cl)CCN1C1CCN([C@H](CO)c2ccc(Cl)cc2)CC1` [Compound 201], the IC50 was < 25 nM.
Regarding `CC[C@H]1CN(c2ncc(N)cc2Cl)CCN1C1CCN(Cc2ccc(Cl)cc2)CC1` [Compound 202], the IC50 was < 25 nM.
For the compound `CC[C@H]1CN(c2ncc(N)cc2Cl)CCN1C1CCN(Cc2ccc(Br)cc2F)CC1` [Compound 203], the IC50 was < 25 nM.
Turning to `CC[C@H]1CN(c2ncc(NCCCC(F)(F)F)cc2Cl)CCN1C1CCN(Cc2ccc(Cl)cc2)CC1` [Compound 204], the IC50 is 25 to 100 nM.
For the compound `CC[C@H]1CN(c2ncc(N/C(=N/C#N)NC)cc2Cl)CCN1C1CCN(Cc2ccc(Cl)cc2F)CC1` [Compound 205], the IC50 fell in the range of 25 to 100 nM.
Turning to `CC[C@H]1CN(c2ncc(N)cc2Cl)CCN1C1CCN(Cc2ccc(Cl)cc2F)CC1` [Compound 206], the IC50 was 25 to 100 nM.
Take `CC[C@H]1CN(c2ncc(N/C(N)=N/C#N)cc2Cl)CCN1C1CCN(Cc2ccc(Cl)cc2F)CC1` [Compound 208]: the 50% inhibitory concentration (IC50) is 25 to 100 nM.
The figure for `CC[C@H]1CN(c2ncc(N/C(=N/C#N)NC3CC3)cc2Cl)CCN1C1CCN(Cc2ccc(Cl)cc2F)CC1` [Compound 209] is 25 to 100 nM; for `CC[C@H]1CN(c2ncc(-n3cccn3)cc2Cl)CCN1C1CCN(Cc2ccc(OC(F)(F)F)cc2)CC1` [Compound 210] it is 25 to 100 nM; for `CC[C@H]1CN(c2ncc(Nc3ncccn3)cc2Cl)CCN1C1CCN(Cc2ccc(Cl)cc2F)CC1` [Compound 211] it is 25 to 100 nM.
For `CC[C@H]1CN(c2ncc([N+](=O)[O-])cc2Cl)CCN1C1CCN(Cc2ccc(Cl)cc2F)CC1` [Compound 212], the half-inhibitory concentration (IC50) is 25 to 100 nM.
As for `CC[C@H]1CN(c2ncc(N(C)C)cc2Cl)CCN1C1CCN(C(CO)c2ccc(Cl)cc2)CC1` (stereo partly shown) [Compound 213], the concentration for half-maximal inhibition (IC50) is 25 to 100 nM.
Take `CC[C@H]1CN(c2ncc(N/C(=N/C#N)NCCO)cc2Cl)CCN1C1CCN(Cc2ccc(Cl)cc2F)CC1` [Compound 214]: the half-inhibitory concentration (IC50) is > 100 nM.
As for `CC[C@H]1CN(c2ncc([N+](=O)[O-])cc2Cl)CCN1C1CCN(Cc2ccc(Cl)cc2-c2nnc[nH]2)CC1` [Compound 215], the half-inhibitory concentration (IC50) is > 100 nM.
For `CC[C@H]1CN(c2ccc([N+](=O)[O-])cc2Cl)CCN1C1CCN(Cc2ccc(Cl)cc2)CC1` [Compound 216] the value was > 100 nM.
As to `C[C@@H]1CN(C2CCN(Cc3ccc(Cl)cc3F)CC2)[C@@H](C)CN1c1ncc([N+](=O)[O-])cc1Cl` [Compound 217], the IC50 was > 100 nM.
With `C[C@H]1CN(c2ncc(N)cc2Cl)CCN1C1CCN(Cc2ccc(Cl)cc2)CC1` [Compound 218], the half-maximal inhibitory concentration (IC50) is > 100 nM.
Regarding `CC[C@H]1CN(c2nc(N)c(N)nc2Cl)CCN1C1CCN(Cc2ccc(Cl)cc2F)CC1` [Compound 219], the half-inhibitory concentration (IC50) is > 100 nM.
Regarding `CC[C@H]1CN(c2cc(N)c([N+](=O)[O-])cc2Cl)CCN1C1CCN(Cc2ccc(Cl)cc2F)CC1` [Compound 220], the half-inhibitory concentration (IC50) was > 100 nM.
With `CC[C@H]1CN(c2ncc(NC(=N)N)cc2Cl)CCN1C1CCN(Cc2ccc(Cl)cc2F)CC1` [Compound 221], the IC50 is > 100 nM.
As to `CC[C@H]1CN(c2ncc(-n3cccc3)cc2Cl)CCN1C1CCN(Cc2ccc(Cl)cc2F)CC1` [Compound 222], the IC50 was > 100 nM.
For `C[C@H]1CN(c2ncc(Nc3ncccn3)cc2Cl)CCN1C1CCN(Cc2ccc(Cl)cc2F)CC1` [Compound 223] the value was > 100 nM; for `C[C@H]1CN(c2ncc(N)cc2Cl)CCN1C1CCN(Cc2ccc(Cl)cc2F)CC1` [Compound 224], > 100 nM; for `C[C@H]1CN(c2ncc(-n3cccn3)cc2Cl)CCN1C1CCN(Cc2ccc(Cl)cc2F)CC1` [Compound 225], > 100 nM.
Turning to `CC[C@H]1CN(c2cc(N)c(N)cc2Cl)CCN1C1CCN(Cc2ccc(Cl)cc2F)CC1` [Compound 226], the IC50 is > 100 nM.
With `C[C@H]1CN(c2ncc([N+](=O)[O-])cc2Cl)CCN1C1CCN(Cc2ccc(Cl)cc2F)CC1` [Compound 227], the IC50 was > 100 nM.
Regarding `C[C@H]1CN(c2nc(Cl)c(N)cc2Cl)CCN1C1CCN(Cc2ccc(Cl)cc2F)CC1` [Compound 228], the IC50 is > 100 nM.
As for `CC[C@H]1CN(c2ncc(-n3ccnc3)cc2Cl)CCN1C1CCN([C@H](C(=O)OC)c2ccc(Cl)cc2)CC1` [Compound 229], the IC50 is > 100 nM.
As for `CC[C@H]1CN(c2ncc([N+](=O)[O-])cc2Cl)CCN1C1CCN(Cc2ccc(Cl)cc2-c2nnc(Br)[nH]2)CC1` [Compound 230], the IC50 is > 100 nM.
As to `C[C@H]1CN(c2ncc(NN)cc2Cl)CCN1C1CCN(Cc2ccc(Cl)cc2F)CC1` [Compound 231], the IC50 was > 100 nM.
`C[C@@H]1CN(C2CCN(Cc3ccc(Cl)cc3F)CC2)[C@@H](C)CN1c1ncc(N)cc1N` [Compound 233]: the half-maximal inhibitory concentration (IC50) is > 100 nM.
As for `CC[C@H]1CN(c2ncc(NC3=NS(=O)(=O)N=C3NC3CC3)cc2Cl)CCN1C1CCN(Cc2ccc(OC(F)(F)F)cc2)CC1` [Compound 234], the IC50 is < 25 nM.
As to `CC[C@H]1CN(c2ncc(NC3=NS(=O)(=O)N=C3NC3CC3)cc2Cl)CCN1C1CCN(Cc2ccc(Cl)cc2F)CC1` [Compound 235], the IC50 is < 25 nM.
Turning to `CC[C@H]1CN(c2ncc(NC3=NS(=O)(=O)N=C3NC3CC3)cc2Cl)CCN1C1CCN(Cc2ccc(Cl)cc2C(=N)NO)CC1` [Compound 236], the half-inhibitory concentration (IC50) was < 25 nM.
For the compound `CC[C@H]1CN(c2ncc(NC3=NS(=O)(=O)N=C3N(C)C)cc2Cl)CCN1C1CCN(Cc2ccc(Cl)cc2F)CC1` [Compound 237], the IC50 was < 25 nM.
Consider `CC[C@H]1CN(c2ncc(NC3=NS(=O)(=O)N=C3NCCO)cc2Cl)CCN1C1CCN(Cc2ccc(Cl)cc2F)CC1` [Compound 238], for which the half-maximal inhibitory concentration (IC50) is < 25 nM.
For `CC[C@H]1CN(c2ncc(NC3=NS(=O)(=O)N=C3NCCO)cc2Cl)CCN1C1CCN(Cc2ccc(OC(F)(F)F)cc2)CC1` [Compound 239] the value was < 25 nM.
The figure for `CC[C@H]1CN(c2ncc(NC3=NS(=O)(=O)N=C3NC3CC3)cc2Cl)CCN1C1CCN([C@H](CO)c2ccc(Cl)cc2)CC1` [Compound 240] is < 25 nM; for `CCCCNC1=NS(=O)(=O)N=C1Nc1cnc(N2CCN(C3CCN(Cc4ccc(Cl)cc4C(=N)NO)CC3)[C@@H](CC)C2)c(Cl)c1` [Compound 241] it is < 25 nM; for `CC[C@H]1CN(c2ncc(NC3=NS(=O)(=O)N=C3NC3CC3)cc2Cl)CCN1C1CCN(Cc2ccc(Cl)c(F)c2)CC1` [Compound 242] it is < 25 nM.
Take `CC[C@H]1CN(c2ncc(NC3=NS(=O)(=O)N=C3NC(C)C)cc2Cl)CCN1C1CCN(Cc2ccc(Cl)cc2F)CC1` [Compound 243]: the IC50 was < 25 nM.
For the compound `CC[C@H]1CN(c2ncc(NC3=NS(=O)(=O)N=C3NC)cc2Cl)CCN1C1CCN(Cc2ccc(Cl)cc2C(=N)NO)CC1` [Compound 244], the IC50 was < 25 nM.
With `CC[C@H]1CN(c2ncc(NC3=NS(=O)(=O)N=C3NC3CC3)cc2Cl)CCN1C1CCN(Cc2ccc(C(F)(F)F)cc2)CC1` [Compound 245], the half-inhibitory concentration (IC50) is < 25 nM.
The figure for `CC[C@H]1CN(c2ncc(NC3=NS(=O)(=O)N=C3NCC3CC3)cc2Cl)CCN1C1CCN(Cc2ccc(Cl)cc2F)CC1` [Compound 246] is < 25 nM; for `CC[C@H]1CN(c2ncc(NC3=NS(=O)(=O)N=C3NC3CCC3)cc2Cl)CCN1C1CCN(Cc2ccc(Cl)cc2F)CC1` [Compound 247] it is < 25 nM; for `CC[C@H]1CN(c2ncc(NC3=NS(=O)(=O)N=C3NC3CC3)cc2Cl)CCN1C1CCN(Cc2ccc(C#N)cc2)CC1` [Compound 248] it is < 25 nM.
For `CC[C@H]1CN(c2ncc(NC3=NS(=O)(=O)N=C3NC3CC3)cc2Cl)CCN1C1CCN(Cc2ccc(Cl)cc2-c2ncon2)CC1` [Compound 249] the value was < 25 nM.
